In PMC13059744 (mBio, 2026):

Tested on: cabABC promoter (PcabABC-luc) in S. mitis G22
Assay: cabABC expression, PcabABC-luc reporter in S. mitis G22
Type: cell-based, Streptococcus mitis
Conditions: after CSPG22 treatment in acidic medium; Fig. S3B

ESRLSRLLRDFIFQIKQ [CSPG22]
time of peak cabABC expression post-induction: approximately 70 min
